The record followed here is publication PMC10619132 (RSC Chemical Biology, 2023).

Experiment [1] has as its target YAP–TEAD4-YBD interaction (Homo sapiens, UniProt Q15561). Put plainly: Primary FP screening assay, 1536-well. The settings on record: read-out: IC50 in the primary FP screening assay. It counts as binding.
Experiment [2] concerns Gal4-TEAD4 fusion protein with YAP. Put plainly: Gal4-TEAD4 / YAP UAS-LUC reporter assay in HEK293T cells. It counts as cell-based. The note with it: 20 μM, 24 hours. For orientation: In a reporter assay the amount or activity of a reporter protein is the signal.
A further experiment concerns the target YAP:TEAD1 complex (Homo sapiens, UniProt P28347). Nature of the experiment: Anti-FLAG co-immunoprecipitation of HA-YAP in HEK293T cells. It counts as cell-based. The note with it: 10 μM, 24 hours.
Another experiment deals with YAP:TEAD2 complex (Homo sapiens, UniProt Q15562). The experiment is described as above. It counts as cell-based. The settings on record: 10 μM, 24 hours.
The next experiment concerns the target YAP:TEAD4 complex (Homo sapiens, UniProt Q15561). Described as above. It counts as cell-based. The note with it: 10 μM, 24 hours.

Sequence of YAP:TEAD2 complex (Q15562 whole entry, one chain of several): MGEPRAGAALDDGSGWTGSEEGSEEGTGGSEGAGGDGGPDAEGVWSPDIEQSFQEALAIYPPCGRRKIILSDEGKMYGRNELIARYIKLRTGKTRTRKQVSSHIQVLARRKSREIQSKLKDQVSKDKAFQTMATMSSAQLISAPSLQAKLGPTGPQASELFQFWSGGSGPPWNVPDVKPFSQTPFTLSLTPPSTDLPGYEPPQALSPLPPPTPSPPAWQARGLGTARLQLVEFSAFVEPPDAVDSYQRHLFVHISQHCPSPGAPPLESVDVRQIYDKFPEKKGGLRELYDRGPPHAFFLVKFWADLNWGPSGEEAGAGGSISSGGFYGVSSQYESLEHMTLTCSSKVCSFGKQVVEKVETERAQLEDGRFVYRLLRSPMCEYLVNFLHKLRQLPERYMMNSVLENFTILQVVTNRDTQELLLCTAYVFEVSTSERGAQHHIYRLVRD
Sequence of YAP–TEAD4-YBD interaction (Q15561 216-434): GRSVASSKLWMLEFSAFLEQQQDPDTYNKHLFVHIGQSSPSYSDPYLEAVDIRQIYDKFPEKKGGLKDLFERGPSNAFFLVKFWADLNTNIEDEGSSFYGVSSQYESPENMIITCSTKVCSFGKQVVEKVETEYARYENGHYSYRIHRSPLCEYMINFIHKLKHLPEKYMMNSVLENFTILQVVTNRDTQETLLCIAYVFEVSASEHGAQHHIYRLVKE
Sequence of YAP:TEAD4 complex (Q15561 whole entry, one chain of several): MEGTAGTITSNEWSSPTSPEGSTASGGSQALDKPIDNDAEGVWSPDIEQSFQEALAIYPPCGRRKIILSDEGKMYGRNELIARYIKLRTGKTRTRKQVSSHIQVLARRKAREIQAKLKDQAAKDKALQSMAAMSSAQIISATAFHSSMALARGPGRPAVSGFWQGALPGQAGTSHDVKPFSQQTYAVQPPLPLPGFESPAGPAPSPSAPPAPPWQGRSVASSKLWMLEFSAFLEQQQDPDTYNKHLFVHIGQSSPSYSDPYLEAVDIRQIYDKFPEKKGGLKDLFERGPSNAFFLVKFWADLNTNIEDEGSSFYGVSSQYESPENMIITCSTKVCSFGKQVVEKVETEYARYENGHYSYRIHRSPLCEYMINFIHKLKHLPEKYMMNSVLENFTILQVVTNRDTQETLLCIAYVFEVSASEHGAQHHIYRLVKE
Sequence of YAP:TEAD1 complex (P28347 whole entry, one chain of several): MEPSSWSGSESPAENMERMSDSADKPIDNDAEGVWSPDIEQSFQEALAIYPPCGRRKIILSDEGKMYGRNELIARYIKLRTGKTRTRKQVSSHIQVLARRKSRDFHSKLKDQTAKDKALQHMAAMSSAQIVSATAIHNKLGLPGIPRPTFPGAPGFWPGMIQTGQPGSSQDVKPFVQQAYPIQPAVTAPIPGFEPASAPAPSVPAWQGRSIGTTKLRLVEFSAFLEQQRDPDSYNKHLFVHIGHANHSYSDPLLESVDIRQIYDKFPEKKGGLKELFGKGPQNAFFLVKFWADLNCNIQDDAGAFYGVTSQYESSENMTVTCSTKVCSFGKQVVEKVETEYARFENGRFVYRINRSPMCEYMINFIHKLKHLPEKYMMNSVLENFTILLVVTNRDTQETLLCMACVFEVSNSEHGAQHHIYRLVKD

For Verteporfin [VTP], the IC50 in experiment [1] turned out to be 544 nM. In experiment [2], the “decrease in YAP-driven luciferase signal” value was found to be 88%.

`C=CC(=O)N1C[C@@H](n2cc(-c3cccnc3)nn2)[C@H](OCc2ccc(C(F)(F)F)cc2)C1` [MYF-03-69]: the “inhibition of HA-YAP association with FLAG-TEAD1” value against YAP:TEAD1 complex is “robustly inhibited the association with TEAD1 transgene”. Further, on YAP:TEAD2 complex, the “inhibition of HA-YAP association with FLAG-TEAD2” value is “lesser inhibitory effect”. In addition, the “inhibition of HA-YAP association with FLAG-TEAD4” value against YAP:TEAD4 complex is reported as “strongly inhibited”.

The term IC50 denotes the concentration at which inhibition is half-maximal.
